pIC50: −log10 of the molar value.
test: Inhibition of serum-stimulated proliferation of mouse ERBB2 transfected NIH3T3 cell line after 24 hrs

| SMILES | pIC50 |
| --- | --- |
| O=C(NCCCl)Nc1ccc2ncnc(Nc3cccc(Cl)c3)c2c1 [1-(2-chloroethyl)-3-{[4-(3-chlorophenyl)amino]quinazolin-6-yl}urea] | 5.87 |
| Cc1cccc(Nc2ncnc3ccc(NC(=O)NCCCl)cc23)c1 [1-(2-chloroethyl)-3-{[4-(3-methylphenyl)amino]quinazolin-6-yl}urea] | 5.68 |
| O=NN(CCCl)C(=O)Nc1ccc2ncnc(Nc3cccc(Cl)c3)c2c1 [1-(2-Chloroethyl)-1-nitroso-3-{[4-(3-chlorophenyl)amino]quinazolin-6-yl}urea] | 5.27 |
| Cc1cccc(Nc2ncnc3ccc(NC(=O)N(CCCl)N=O)cc23)c1 [1-(2-Chloroethyl)-1-nitroso-3-{[4-(3-methylphenyl)amino]quinazolin-6-yl}urea] | 4.91 |
| Nc1ccc2ncnc(Nc3cccc(Br)c3)c2c1 | 6.17 |
| Cc1cccc(Nc2ncnc3ccc(N)cc23)c1 [N4-(3-methylphenyl)-4,6-quinazolinediamine] | 5.19 |
| Cc1cccc(Nc2ncnc3ccc(N(C)C(=O)N(CCCl)N=O)cc23)c1 [1-(2-chloroethyl)-1-nitroso-3-methyl-3-{[4-(3-methylphenyl)amino]quinazolin-6-yl}urea] | 5.16 |
| CN(C(=O)N(CCCl)N=O)c1ccc2ncnc(Nc3cccc(Cl)c3)c2c1 [1-(2-chloroethyl)-1-nitroso-3-methyl-3-{[4-(3-chloro-phenyl)amino]quinazolin-6-yl}urea] | 6.17 |

Further compounds by rising pIC50, results first:

| pIC50 | SMILES |
| --- | --- |
| 5.48 | Nc1ccc2ncnc(Nc3cccc(Cl)c3)c2c1 |
| 5.51 | CN(C(=O)N(CCCl)N=O)c1ccc2ncnc(Nc3cccc(Br)c3)c2c1 [1-(2-chloroethyl)-1-nitroso-3-methyl-3-{[4-(3-bromophenyl)amino]quinazolin-6-yl}urea] |
| 5.68 | CNc1ccc2ncnc(Nc3cccc(C)c3)c2c1 [4-[(3-methylphenyl)amino]-6-(methylamino)quinazoline] |
| 5.75 | O=C(NCCCl)Nc1ccc2ncnc(Nc3cccc(Br)c3)c2c1 [1-(2-chloroethyl)-3-{[4-(3-bromophenyl)amino]quinazolin-6-yl}urea] |
| 5.94 | O=NN(CCCl)C(=O)Nc1ccc2ncnc(Nc3cccc(Br)c3)c2c1 [1-(2-chloroethyl)-1-nitroso-3-{[4-(3-bromophenyl)amino]quinazolin-6-yl}urea] |
| 6.05 | CNc1ccc2ncnc(Nc3cccc(Cl)c3)c2c1 [4-[(3-chlorophenyl)amino]-6-(methylamino)quinazoline] |
| 6.77 | CNc1ccc2ncnc(Nc3cccc(Br)c3)c2c1 [4-N-(3-bromophenyl)-6-N-methylquinazoline-4,6-diamine] |

From BindingDB's records for doi:10.1021/jm0600390 (Mcgill University Health Center/Royal Victoria Hospital, 2006)
